From ChEMBL document CHEMBL4819125, “Synthesis and anti-proliferation activity of mogrol derivatives bearing quinoline and triazole moieties” (Bioorg Med Chem Lett, 2021)
Calls of active or inactive are those of the source. The rule behind the calls is not given here.

Key:
[1] = test system: A549; assay: Antiproliferative activity against human A549 cells assessed as reduction in cell growth at 30 uM by CCK8 assay relative to control; assay type: functional
[2] = test system: NCI-H460; assay: Antiproliferative activity against human NCI-H460 cells assessed as reduction in cell growth at 30 uM by CCK8 assay relative to control; assay type: functional
[3] = test system: A549; assay: Antiproliferative activity against human A549 cells assessed as reduction in cell growth by CCK8 assay; assay type: functional, cell-based
[4] = test system: A549; assay: Induction of apoptosis in human A549 cells assessed as viable cells at 3.75 uM incubated for 72 hrs by annexin V-FITC and PI staining based flow cytometry analysis (reference value: 95.98 %); assay type: functional; conditions: read-out: Activity
[5] = test system: A549; assay: Induction of apoptosis in human A549 cells assessed as early apoptotic cells at 3.75 uM incubated for 72 hrs by annexin V-FITC and PI staining based flow cytometry analysis (reference value: 2.25 %); assay type: functional
[6] = test system: A549; assay: Induction of apoptosis in human A549 cells assessed as late apoptotic cells at 3.75 uM incubated for 72 hrs by annexin V-FITC and PI staining based flow cytometry analysis (reference value: 0.5 %); assay type: functional
[7] = test system: A549; assay: Induction of apoptosis in human A549 cells assessed as necrotic cells at 3.75 uM incubated for 72 hrs by annexin V-FITC and PI staining based flow cytometry analysis (reference value: 1.27 %); assay type: functional
[8] = test system: A549; assay: Induction of apoptosis in human A549 cells assessed as viable cells at 7.5 uM incubated for 72 hrs by annexin V-FITC and PI staining based flow cytometry analysis (reference value: 95.98 %); assay type: functional; conditions: read-out: Activity
[9] = test system: A549; assay: Induction of apoptosis in human A549 cells assessed as early apoptotic cells at 7.5 uM incubated for 72 hrs by annexin V-FITC and PI staining based flow cytometry analysis (reference value: 2.25 %); assay type: functional
[10] = test system: A549; assay: Induction of apoptosis in human A549 cells assessed as late apoptotic cells at 7.5 uM incubated for 72 hrs by annexin V-FITC and PI staining based flow cytometry analysis (reference value: 0.5 %); assay type: functional
[11] = test system: A549; assay: Induction of apoptosis in human A549 cells assessed as necrotic cells at 7.5 uM incubated for 72 hrs by annexin V-FITC and PI staining based flow cytometry analysis (reference value: 1.27 %); assay type: functional
[12] = test system: A549; assay: Induction of apoptosis in human A549 cells assessed as viable cells at 15 uM incubated for 72 hrs by annexin V-FITC and PI staining based flow cytometry analysis (reference value: 95.98 %); assay type: functional; conditions: read-out: Activity
[13] = test system: A549; assay: Induction of apoptosis in human A549 cells assessed as early apoptotic cells at 15 uM incubated for 72 hrs by annexin V-FITC and PI staining based flow cytometry analysis (reference value: 2.25 %); assay type: functional
[14] = test system: A549; assay: Induction of apoptosis in human A549 cells assessed as late apoptotic cells at 15 uM incubated for 72 hrs by annexin V-FITC and PI staining based flow cytometry analysis (reference value: 0.5 %); assay type: functional
[15] = test system: A549; assay: Induction of apoptosis in human A549 cells assessed as necrotic cells at 15 uM incubated for 72 hrs by annexin V-FITC and PI staining based flow cytometry analysis (reference value: 1.27 %); assay type: functional
[16] = test system: A549; assay: Induction of apoptosis in human A549 cells assessed as early apoptotic cells incubated for 72 hrs by annexin V-FITC and PI staining based flow cytometry analysis; assay type: functional, cell-based; conditions: dose 3.75-15 µM
[17] = test system: A549; assay: Induction of apoptosis in human A549 cells assessed as late apoptotic cells incubated for 72 hrs by annexin V-FITC and PI staining based flow cytometry analysis; assay type: functional, cell-based; conditions: dose 3.75-15 µM
[18] = test system: A549; assay: Induction of cell cycle arrest in human A549 cells assessed as G0/G1 phase at 3.75 uM incubated for 72 hrs by PI staining based flow cytometry analysis (reference value: 53.87 %); assay type: functional
[19] = test system: A549; assay: Induction of cell cycle arrest in human A549 cells assessed as G2/M phase at 3.75 uM incubated for 72 hrs by PI staining based flow cytometry analysis (reference value: 14.78 %); assay type: functional
[20] = test system: A549; assay: Induction of cell cycle arrest in human A549 cells assessed as S phase at 3.75 uM incubated for 72 hrs by PI staining based flow cytometry analysis (reference value: 31.35 %); assay type: functional
[21] = test system: A549; assay: Induction of cell cycle arrest in human A549 cells assessed as G0/G1 phase at 7.5 uM incubated for 72 hrs by PI staining based flow cytometry analysis (reference value: 53.87 %); assay type: functional
[22] = test system: A549; assay: Induction of cell cycle arrest in human A549 cells assessed as G2/M phase at 7.5 uM incubated for 72 hrs by PI staining based flow cytometry analysis (reference value: 14.78 %); assay type: functional
[23] = test system: A549; assay: Induction of cell cycle arrest in human A549 cells assessed as S phase at 7.5 uM incubated for 72 hrs by PI staining based flow cytometry analysis (reference value: 31.35 %); assay type: functional
[24] = test system: A549; assay: Induction of cell cycle arrest in human A549 cells assessed as G0/G1 phase at 15 uM incubated for 72 hrs by PI staining based flow cytometry analysis (reference value: 53.87 %); assay type: functional
[25] = test system: A549; assay: Induction of cell cycle arrest in human A549 cells assessed as G2/M phase at 15 uM incubated for 72 hrs by PI staining based flow cytometry analysis (reference value: 14.78 %); assay type: functional
[26] = test system: A549; assay: Induction of cell cycle arrest in human A549 cells assessed as S phase at 15 uM incubated for 72 hrs by PI staining based flow cytometry analysis (reference value: 31.35 %); assay type: functional
[27] = test system: A549; assay: Induction of cell cycle arrest in human A549 cells assessed as G0/G1 phase incubated for 72 hrs by PI staining based flow cytometry analysis; assay type: functional; conditions: dose 3.75-15 µM
[28] = target: Signal transducer and activator of transcription 3 (Homo sapiens) (UniProt P40763); assay: Inhibition of STAT3 in human A549 cells assessed as reduction in STAT3 phosphorylation incubated for 72 hrs by Western blot analysis; assay type: cell-based; conditions: dose 3.75-15 µM
[29] = test system: A549; assay: Effect on STAT3 expression in human A549 cells at 3.75 to 15 uM incubated for 72 hrs by Western blot analysis; assay type: functional, cell-based; conditions: dose 3.75-15 µM

Signal transducer and activator of transcription 3 (Homo sapiens), sequence (P40763 whole entry): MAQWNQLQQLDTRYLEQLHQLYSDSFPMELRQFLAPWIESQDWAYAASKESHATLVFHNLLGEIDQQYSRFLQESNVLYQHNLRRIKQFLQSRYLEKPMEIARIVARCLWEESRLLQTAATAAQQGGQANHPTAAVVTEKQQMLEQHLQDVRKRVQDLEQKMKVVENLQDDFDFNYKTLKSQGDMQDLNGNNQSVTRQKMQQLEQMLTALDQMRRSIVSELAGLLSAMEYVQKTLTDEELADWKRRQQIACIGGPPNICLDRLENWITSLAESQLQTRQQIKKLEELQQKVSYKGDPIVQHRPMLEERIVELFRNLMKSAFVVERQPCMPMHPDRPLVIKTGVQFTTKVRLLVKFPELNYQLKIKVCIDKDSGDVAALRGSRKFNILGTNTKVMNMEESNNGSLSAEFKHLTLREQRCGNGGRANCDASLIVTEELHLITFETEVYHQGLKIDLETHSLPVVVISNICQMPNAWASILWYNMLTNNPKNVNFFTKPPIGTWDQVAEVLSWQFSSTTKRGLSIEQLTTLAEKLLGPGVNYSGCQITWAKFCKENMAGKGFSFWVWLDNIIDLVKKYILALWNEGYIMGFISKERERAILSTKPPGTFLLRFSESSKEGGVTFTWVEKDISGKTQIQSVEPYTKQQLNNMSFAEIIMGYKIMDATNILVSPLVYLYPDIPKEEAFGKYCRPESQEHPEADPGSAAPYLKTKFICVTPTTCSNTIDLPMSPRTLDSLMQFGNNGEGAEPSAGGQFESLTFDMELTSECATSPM

C[C@H](CC[C@@H](O)C(C)(C)O)[C@H]1CC[C@@]2(C)[C@@H]3CC=C4[C@@H](CC[C@H](O)C4(C)C)[C@]3(C)[C@H](OC(=O)Cn3cc(-c4cccc(Cl)c4)nn3)C[C@]12C
inhibition at 30 µM [1]: 90.2% | inhibition at 30 µM [2]: 33.8% | IC50 [3]: 4.47 µM | viability at 3.75 µM [4]: 94.9% | Activity [5]: 2.28% | Activity [6]: 0.79% | Activity [7]: 2.07% | viability at 7.5 µM [8]: 91.7% | Activity [9]: 3.66% | Activity [10]: 1.27% | Activity [11]: 3.37% | viability at 15 µM [12]: 91.7% | Activity [13]: 4.8% | Activity [14]: 1.53% | Activity [15]: 1.92% | Activity [16]: Dose-Dependent Effect | Activity [17]: Dose-Dependent Effect | Activity [18]: 55.45% | Activity [19]: 13.93% | Activity [20]: 30.62% | Activity [21]: 60.04% | Activity [22]: 11.5% | Activity [23]: 28.46% | Activity [24]: 72.72% | Activity [25]: 11.25% | Activity [26]: 16.03% | Activity [27]: Dose-Dependent Effect | inhibition [28]: Dose-Dependent Effect | inhibition [29]: Active
